The values that follow are results of earlier work, collected in patent publication US8263660B2, “Stable hyperbaric composition comprising prilocaine HCl, use of said new composition for intrathecal anaethesia, and method for manufacturing said composition” (Sintetica S.A., priority 2006, dated 2012).

Molecules are shown by their SMILES.

For this series the following is noted: intrathecal application, literature reference (4).

Regarding `CCN(CC)CCOC(=O)c1ccc(N)cc1` [procaine], the inadequacy rate was at most 17%.
